Source: patent US11485728B2, “Small molecules for the treatment of autoimmune diseases and cancer” (Athos Therapeutics, Inc., priority 2020, dated 2022)
Read-outs that look alike come from different tables or passages of the source.

How the values were obtained:
[1] = PAMPA permeability; conditions: for Papp at 5 h, 20 μM: PAMPA, 5 hours at RT
[2] = molecular target: T1, CYP2D6 (Homo sapiens, UniProt P10635); test: CYP-direct inhibition, CYP2D6; format: in vitro ADME
T1 construct: from tissue; host or cells: pooled human liver microsomes
Method: (§1) Many drugs inhibit cytochrome P450 enzymes to cause clinically significant changes in the pharmacokinetics of other drugs. In vitro cytochrome P450 inhibition, can provide crucial information in evaluating potential clinical drug-drug interactions and is useful for focusing in vivo tests to areas of concern. The cytochrome P450 inhibition assay was developed by preparing a working cocktail solution consisting of six probe substrates 10 μM ethoxy-resorufin (CYP1A2), 100 μM rosiglitazone (CYP2C8), 50 μM diclofenac (CYP2C9), 300 μM S-mephenytoin (CYP2C19), 50 μM dextromethorphan (CYP2D6), and 20 μM midazolam (CYP3A4). A mixture solution consists of 140 uL of 0.286 mg/mL of pooled human liver microsome working solution and 20 uL working solutions of test articles, standard control inhibitors, or positive control placebo and 20 uL of substrate cocktail mixture working solution was prepared. The mixture solution was pre-warm in a gentle shaking bath at 37±2° C. for 5 minutes. The enzymatic reaction started by adding 20 uL of NRS working solution to the mixture solution and incubated for 10 minutes at 37±2° C. To stop the reaction, an addition of 400 μL cold stop solution (acetonitrile containing 50 ng/mL Tolbutamide as an internal standard (I.Std.) was added to the mixture solution. The final concentration of test article, inhibitors, substrates, and cofactors are noted in Table 0.1 below. Two individual samples were prepared for each test compound. The extracted samples were vortexed and then centrifuged at 4500 rpm for 7 minutes using Eppendorf Centrifuge 5910R. 200 uL of supernatant was diluting with 200 uL of 50% Methanol into 96-DW plate for LC/MS/MS analysis
(§2) Concentration-response plots are used to determine the effects of an inhibitor on an enzymatic reaction. A typical concentration-response plot provides fractional activity (Y axis) is plotted as a function of log inhibitor concentration (X axis). The data are fitted using a standard Sigmoidal dose-response equation which is also called a […] logistic equation. The concentration of compound that results in 50% inhibition of maximal activity is termed as the IC50 (inhibitor concentration yielding 50% inhibition). IC50 value is calculated using Prism GraphPad software, version 9. […].
(§3) Cytochrome P450 inhibition of a drug is a key factor in determining pharmacokinetic drug-drug interactions. The objective of this study was to evaluate the inhibition potential of G9a inhibitors on six (6) major human cytochrome P450 enzymes, including CYP1A2, CYP2C8, CYP2C9, CYP2C19, CYP2D6, and CYP3A4. Inhibition was determined by using a substrate cocktail and analyzing the rate of specific metabolites formation. The cytochrome P450 inhibition assay was developed using a cocktail consisting of six (6) probe substrates ethoxy-resorufin (CYP1A2), rosiglitazone (CYP2C8), diclofenac (CYP2C9), S-mephenytoin (CYP2C19), dextromethorphan (CYP2D6), and midazolam (CYP3A4). The cocktail was incubated in human liver microsome with NADPH regenerating system (NRS) in a shaking bath at 37±2° C. The formation of specific metabolites was monitored by LC/MS/MS. Test compound was added to the cocktail-liver microsome mixture at varying concentrations and its effect on cytochrome P450 activity was determined by analyzing the rate of specific metabolite formation. The percent inhibition was calculated and plotted with reference to the concentration, and the IC50 value for inhibition was derived by fitting the data with a using log(inhibitor) vs. normalized response with variable slope least squares fit by Graphpad Prism® software. […].

[3] = molecular target: T2, CYP1A2 (Homo sapiens, UniProt P05177); test: CYP-direct inhibition, CYP1A2; format: in vitro ADME
T2 construct: from tissue; host or cells: pooled human liver microsomes
T2 sequence (P05177 1-516): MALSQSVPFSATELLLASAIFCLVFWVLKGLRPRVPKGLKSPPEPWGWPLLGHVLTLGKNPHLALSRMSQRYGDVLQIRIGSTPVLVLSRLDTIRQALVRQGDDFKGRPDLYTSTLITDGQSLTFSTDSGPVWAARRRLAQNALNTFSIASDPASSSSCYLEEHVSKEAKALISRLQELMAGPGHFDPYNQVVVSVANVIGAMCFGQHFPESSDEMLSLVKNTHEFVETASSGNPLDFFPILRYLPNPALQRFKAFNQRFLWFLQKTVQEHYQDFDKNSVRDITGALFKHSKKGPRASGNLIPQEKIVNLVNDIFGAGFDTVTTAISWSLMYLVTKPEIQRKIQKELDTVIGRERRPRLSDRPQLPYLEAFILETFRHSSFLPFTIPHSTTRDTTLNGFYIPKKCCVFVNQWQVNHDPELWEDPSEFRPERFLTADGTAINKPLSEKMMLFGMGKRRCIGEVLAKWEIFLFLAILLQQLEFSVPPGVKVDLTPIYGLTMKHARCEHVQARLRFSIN
Method: as §1, §2, §3

[4] = molecular target: T3, CYP2C9 (Homo sapiens, UniProt P11712); test: CYP-direct inhibition, CYP2C9; format: in vitro ADME
T3 construct: from tissue; host or cells: pooled human liver microsomes
Method: as §1, §2, §3

[5] = molecular target: T4, CYP2C19 (Homo sapiens, UniProt P33261); test: CYP-direct inhibition, CYP2C19; format: in vitro ADME
T4 construct: from tissue; host or cells: pooled human liver microsomes
Method: as §1, §2, §3

[6] = PAMPA permeability Classification, 20 μM donor
[7] = Permeability, Pe, 20 μM donor in PBS/MeOH 90:10
[8] = human liver microsome, substrate dextromethorphan, read-out: IC50 CYP-2D6
[9] = human liver microsome, substrate ethoxy-resorufin, read-out: IC50 CYP-1A2

T1 sequence (P10635 whole entry): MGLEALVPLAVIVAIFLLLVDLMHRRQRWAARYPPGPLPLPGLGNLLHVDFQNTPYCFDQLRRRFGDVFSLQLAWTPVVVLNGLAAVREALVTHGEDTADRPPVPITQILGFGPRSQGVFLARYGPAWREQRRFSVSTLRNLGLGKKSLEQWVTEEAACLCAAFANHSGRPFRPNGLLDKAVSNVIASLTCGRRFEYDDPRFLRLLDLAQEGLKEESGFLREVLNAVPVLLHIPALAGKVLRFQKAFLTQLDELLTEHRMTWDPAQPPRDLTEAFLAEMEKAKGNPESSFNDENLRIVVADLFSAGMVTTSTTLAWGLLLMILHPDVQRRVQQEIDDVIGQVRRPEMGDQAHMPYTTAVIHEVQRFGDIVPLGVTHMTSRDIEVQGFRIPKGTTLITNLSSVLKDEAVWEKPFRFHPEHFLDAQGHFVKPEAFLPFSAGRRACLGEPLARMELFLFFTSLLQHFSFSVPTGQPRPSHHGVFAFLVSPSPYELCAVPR
T3 sequence (P11712 whole entry): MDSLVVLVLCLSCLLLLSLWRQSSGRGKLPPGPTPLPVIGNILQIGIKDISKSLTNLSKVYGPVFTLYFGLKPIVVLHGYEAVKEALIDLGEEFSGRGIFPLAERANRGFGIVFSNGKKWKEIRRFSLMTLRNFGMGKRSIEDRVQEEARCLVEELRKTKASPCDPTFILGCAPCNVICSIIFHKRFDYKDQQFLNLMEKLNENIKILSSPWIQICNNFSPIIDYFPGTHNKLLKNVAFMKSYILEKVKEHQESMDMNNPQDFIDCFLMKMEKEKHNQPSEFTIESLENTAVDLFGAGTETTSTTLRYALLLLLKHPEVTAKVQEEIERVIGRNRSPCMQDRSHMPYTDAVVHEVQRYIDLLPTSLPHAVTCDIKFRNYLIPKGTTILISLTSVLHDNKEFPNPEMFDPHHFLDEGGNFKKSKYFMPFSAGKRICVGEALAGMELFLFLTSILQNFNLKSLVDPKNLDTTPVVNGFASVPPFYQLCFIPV
T4 sequence (P33261 whole entry): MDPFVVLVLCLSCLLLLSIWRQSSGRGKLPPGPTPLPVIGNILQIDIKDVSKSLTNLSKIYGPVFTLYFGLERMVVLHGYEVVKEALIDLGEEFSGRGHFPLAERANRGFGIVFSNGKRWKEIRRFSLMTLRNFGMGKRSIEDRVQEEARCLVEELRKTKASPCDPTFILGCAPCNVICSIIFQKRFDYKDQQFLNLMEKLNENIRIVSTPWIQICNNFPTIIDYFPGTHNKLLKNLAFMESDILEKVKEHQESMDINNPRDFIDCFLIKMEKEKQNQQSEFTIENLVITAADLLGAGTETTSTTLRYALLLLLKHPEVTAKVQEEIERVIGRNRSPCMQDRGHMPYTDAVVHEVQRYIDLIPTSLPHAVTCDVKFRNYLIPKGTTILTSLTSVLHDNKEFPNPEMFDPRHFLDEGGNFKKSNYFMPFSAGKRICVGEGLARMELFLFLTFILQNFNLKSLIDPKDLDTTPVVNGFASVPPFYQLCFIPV

Work on `COc1cc2c(NC3CCS(=O)(=O)CC3)nc(N3CCC(F)(F)CC3)nc2cc1OCCCN1CCCC1` [Compound 1, 4-((2-(4,4-difluoropiperidin-1-yl)-6-methoxy-7-(3-(pyrrolidin-1-yl)propoxy)quinazolin-4-yl)amino)tetrahydro-2H-thiopyran 1,1-dioxide] yielded a Papp at 5 h, 20 μM [1, 6] of under 0.055 ×10⁻⁶ cm/s, a Papp at 5 h, 20 μM [1, 7] of 0.0441 ×10⁻⁶ cm/s and an IC50 [2, 8] of 21.9 µM. The IC50 [3, 9] was over 100 µM, the IC50 [4] was over 100 µM and the IC50 [5] was over 100 µM.

In the case of `COc1cc2c(NC3CCOCC3)nc(N3CCC(F)(F)CC3)nc2cc1OCCCN1CCCC1` [Compound 2, 2-(4,4-difluoropiperidin-1-yl)-6-methoxy-7-(3-(pyrrolidin-1-yl)propoxy)-N-(tetrahydro-2H-pyran-4-yl)quinazolin-4-amine], the “permeability / oral absorption potential (in words)” value [1] is reported as “very high permeability”, the Papp at 5 h, 20 μM [1, 6] is reported as over 1.5 ×10⁻⁶ cm/s and the Papp at 5 h, 20 μM [1, 7] is reported as 6.38 ×10⁻⁶ cm/s. The IC50 [2, 8] was 17.6 µM, the IC50 [3, 9] was over 100 µM and the IC50 [4] was over 100 µM. It also gave an IC50 [5] of over 100 µM.

Molecule `COCCN1CCC(Nc2nc(N3CCC(F)(F)CC3)nc3cc(OCCCN4CCCC4)c(OC)cc23)CC1` [Compound 3, 2-(4,4-difluoropiperidin-1-yl)-6-methoxy-N-(1-(2-methoxyethyl)piperidin-4-yl)-7-(3-(pyrrolidin-1-yl)propoxy)quinazolin-4-amine] has a Papp at 5 h, 20 μM [1, 6] of 0.055 to 1.5 ×10⁻⁶ cm/s, a Papp at 5 h, 20 μM [1, 7] of 0.451 ×10⁻⁶ cm/s and an IC50 [2, 8] of 9.55 µM. It also gave an IC50 [3, 9] of over 100 µM, an IC50 [4] of over 100 µM and an IC50 [5] of over 100 µM.

In the case of `COCCNc1nc(N2CCC(F)(F)CC2)nc2cc(OCCCN3CCCC3)c(OC)cc12` [Compound 4, 2-(4,4-difluoropiperidin-1-yl)-6-methoxy-N-(2-methoxyethyl)-7-(3-(pyrrolidin-1-yl)propoxy)quinazolin-4-amine], the “permeability / oral absorption potential (in words)” value [1] is reported as “very high permeability”, the Papp at 5 h, 20 μM [1, 6] is reported as over 1.5 ×10⁻⁶ cm/s and the Papp at 5 h, 20 μM [1, 7] is reported as 1.77 ×10⁻⁶ cm/s. The IC50 [2, 8] was 13.3 µM, the IC50 [3, 9] was over 100 µM and the IC50 [4] was over 100 µM. The IC50 [5] was 60.9 µM.

Work on `COc1cc2c(NCC3CCN(C)CC3)nc(N3CCC(F)(F)CC3)nc2cc1OCCCN1CCCC1` [Compound 5, 2-(4,4-difluoropiperidin-1-yl)-6-methoxy-N-((1-methylpiperidin-4-yl)methyl)-7-(3-(pyrrolidin-1-yl)propoxy)quinazolin-4-amine] yielded a Papp at 5 h, 20 μM [1, 6] of under 0.055 ×10⁻⁶ cm/s, a Papp at 5 h, 20 μM [1, 7] of 0.00649 ×10⁻⁶ cm/s and an IC50 [2, 8] of over 100 µM. For the same molecule, the IC50 [3, 9] was over 100 µM, the IC50 [4] was over 100 µM and the IC50 [5] was over 100 µM.

`COc1cc2c(Nc3ccncc3)nc(N3CCC(F)(F)CC3)nc2cc1OCCCN1CCCC1` [Compound 7, 2-(4,4-difluoropiperidin-1-yl)-6-methoxy-N-(pyridin-4-yl)-7-(3-(pyrrolidin-1-yl)propoxy)quinazolin-4-amine] showed a Papp at 5 h, 20 μM [1, 6] of 0.055 to 1.5 ×10⁻⁶ cm/s, a Papp at 5 h, 20 μM [1, 7] of 0.584 ×10⁻⁶ cm/s and an IC50 [2, 8] of 12 µM. For the same molecule, the IC50 [3, 9] was over 100 µM, the IC50 [4] was over 100 µM and the IC50 [5] was 44.3 µM.

`COc1cc2c(NC3CCNCC3)nc(N3CCC(F)(F)CC3)nc2cc1OCCCN1CCCC1` [Compound 8, 2-(4,4-difluoropiperidin-1-yl)-6-methoxy-N-(piperidin-4-yl)-7-(3-(pyrrolidin-1-yl)propoxy)quinazolin-4-amine] gave a Papp at 5 h, 20 μM [1, 6] of under 0.055 ×10⁻⁶ cm/s, a Papp at 5 h, 20 μM [1, 7] of 0.00173 ×10⁻⁶ cm/s and an IC50 [2, 8] of over 100 µM. For the same molecule, the IC50 [3, 9] was over 100 µM, the IC50 [4] was over 100 µM and the IC50 [5] was over 100 µM.

For `COc1cc2c(NCC(N)=O)nc(N3CCC(F)(F)CC3)nc2cc1OCCCN1CCCC1` [Compound 9, 2-((2-(4,4-difluoropiperidin-1-yl)-6-methoxy-7-(3-(pyrrolidin-1-yl)propoxy)quinazolin-4-yl)amino)acetamide], the Papp at 5 h, 20 μM [1, 6] was under 0.055 ×10⁻⁶ cm/s, the Papp at 5 h, 20 μM [1, 7] was 0.00981 ×10⁻⁶ cm/s and the IC50 [2, 8] was over 100 µM. For the same molecule, the IC50 [3, 9] was over 100 µM, the IC50 [4] was over 100 µM and the IC50 [5] was over 100 µM.

`COc1cc2c(NC3COC3)nc(N3CCC(F)(F)CC3)nc2cc1OCCCN1CCCC1` [Compound 11, 2-(4,4-difluoropiperidin-1-yl)-6-methoxy-N-(oxetan-3-yl)-7-(3-(pyrrolidin-1-yl)propoxy)quinazolin-4-amine] showed a Papp at 5 h, 20 μM [1, 6] of 0.055 to 1.5 ×10⁻⁶ cm/s, a Papp at 5 h, 20 μM [1, 7] of 0.458 ×10⁻⁶ cm/s and an IC50 [2, 8] of 29.5 µM. The IC50 [3, 9] was over 100 µM, the IC50 [4] was over 100 µM and the IC50 [5] was over 100 µM.

Molecule `COc1cc2c(NC3CCS(=O)(=O)CC3)nc(N3CCCC3)nc2cc1OCCCN1CCCC1` [Compound 80, 4-((6-methoxy-2-(pyrrolidin-1-yl)-7-(3-(pyrrolidin-1-yl)propoxy)quinazolin-4-yl)amino)tetrahydro-2H-thiopyran 1,1-dioxide] has a Papp at 5 h, 20 μM [1, 6] of under 0.055 ×10⁻⁶ cm/s, a Papp at 5 h, 20 μM [1, 7] of 0.00298 ×10⁻⁶ cm/s and an IC50 [2, 8] of 43 µM. The IC50 [3, 9] was over 100 µM, the IC50 [4] was over 100 µM and the IC50 [5] was over 100 µM.

`COc1cc2c(NC3CCS(=O)(=O)CC3)nc(N3CCOCC3)nc2cc1OCCCN1CCCC1` [Compound 102, 4-((6-methoxy-2-morpholino-7-(3-(pyrrolidin-1-yl)propoxy)quinazolin-4-yl)amino)tetrahydro-2H-thiopyran 1,1-dioxide] gave a Papp at 5 h, 20 μM [1, 6] of under 0.055 ×10⁻⁶ cm/s, a Papp at 5 h, 20 μM [1, 7] of 0.000648 ×10⁻⁶ cm/s and an IC50 [2, 8] of 29 µM. It also gave an IC50 [3, 9] of over 100 µM, an IC50 [4] of over 100 µM and an IC50 [5] of over 100 µM.

Work on `COc1cc2c(NC3CCS(=O)(=O)CC3)nc(N3CCS(=O)(=O)CC3)nc2cc1OCCCN1CCCC1` [Compound 103, 4-(4-((1,1-dioxidotetrahydro-2H-thiopyran-4-yl)amino)-6-methoxy-7-(3-(pyrrolidin-1-yl)propoxy)quinazolin-2-yl)thiomorpholine 1,1-dioxide] yielded a Papp at 5 h, 20 μM [1, 6] of under 0.055 ×10⁻⁶ cm/s, a Papp at 5 h, 20 μM [1, 7] of 0.0119 ×10⁻⁶ cm/s and an IC50 [2, 8] of over 100 µM. The IC50 [3, 9] was over 100 µM, the IC50 [4] was over 100 µM and the IC50 [5] was over 100 µM.

For `COc1cc2c(NC3CCS(=O)(=O)CC3)nc(N3CCN(C)CC3)nc2cc1OCCCN1CCCC1` [Compound 109, 4-((6-methoxy-2-(4-methylpiperazin-1-yl)-7-(3-(pyrrolidin-1-yl)propoxy)quinazolin-4-yl)amino)tetrahydro-2H-thiopyran 1,1-dioxide], the Papp at 5 h, 20 μM [1, 6] was under 0.055 ×10⁻⁶ cm/s, the Papp at 5 h, 20 μM [1, 7] was 0.00475 ×10⁻⁶ cm/s and the IC50 [2, 8] was over 100 µM. For the same molecule, the IC50 [3, 9] was over 100 µM, the IC50 [4] was over 100 µM and the IC50 [5] was over 100 µM.

`COc1cc2c(NC3CCN(C(C)C)CC3)nc(N3CCC(F)(F)CC3)nc2cc1OCCCN1CCCC1` [Compound 400, 2-(4,4-difluoropiperidin-1-yl)-N-(1-isopropylpiperidin-4-yl)-6-methoxy-7-(3-(pyrrolidin-1-yl)propoxy)quinazolin-4-amine, reference compound] gave an IC50 [2] of 28.8 µM, an IC50 [3] of over 100 µM and an IC50 [4] of over 100 µM. The IC50 [5] was over 100 µM.
